Laboratory results reported in patent publication US20130150350A1, “Derivatives of 1-Phenyl-1,5-Dihydro-Benzo[B] [1,4]Diazepine-2,4-Dione as Inhibitors of HIV Replication” (BOEHRINGER INGELHEIM INTERNATIONAL GMBH, priority 2010, published 2013).

How the values were obtained:
[1] = biological target: T1, assembled HIV-1 capsid complexes (CA-NC protein, SEQ ID NO: 2) (Human immunodeficiency virus type 1 group M subtype B, UniProt P12493, G226D); experiment: Capsid disassembly assay (CDA); type: biochemical; settings: concentration for 50% disassembly of assembled complexes; 2 hours at room temperature; read-out: IC50 (μM) CDA
T1 construct: HIV-1NL4-3 CA-NC, Gag residues 133-432; initiator Met (start codon introduced by PCR primer) (N); made in house; host or cells: E. coli BL21(DE3), pET-11a
From the text: The GAG polyprotein is the major structural protein required for HIV viral particle assembly. During the maturation process, Gag is cleaved by the viral protease and releases its four major proteins, matrix (MA), capsid (CA), nucleocapside (NC) and p6, as well as two spacer peptides termed SP1 and SP2. This triggers profound morphological changes to the viral particle as CA will reassemble to form the viral core, a structure that is essential for viral infectivity.
(§1) SEQ ID NO: 1 is a nucleic acid of 900 base pairs encoding HIV-1NL4-3 CA-NC, Gag residues 133-432, having the CA G94D mutation (SEQ ID NO: 2). SEQ ID NO: 1, is transferred to pET-11a expression vector (Novagen™) by PCR amplification using primers that introduce an NdeI site and a start codon at the 5′-end and a BamHI site and a stop codon at the 3′-end. Resistance mutations in CA were identified by passage of the HIV-1 virus in the presence of compounds of the invention, namely V27A/I, K30R, S33G, V36T, T58I, G61E, G208A/R, E213G, K30R/T58I, K30R/G208R, V36T/G208R, S33G/T58I, S33G/G208R and T58I/G208R, all numbered with reference to SEQ ID NO: 2,. These resistance mutations may be introduced in the expression vector using the QuikChange® II Site-Directed Mutagenesis Kit (Stratagene) according to the manufacturer's instructions. SEQ ID NOS: 2 is expressed in the BL21(DE3) E. coli cells (Novagen™). Briefly, LB media is inoculated with overnight pre-cultures and grown at 37° C. until mid log-phase (Abs600 ˜0.6), protein expression is induced by addition of 0.5-1 mM isopropyl-β,D-thiogalactopyranoside (IPTG) and carried out for 4 to 6 hours at 30° C. Cells are harvested by centrifugation and pellets are stored at −80° C. until purification.
(§2) Purification of CA-NC (SEQ ID NO: 2) is as follows: 5 to 10 g of cell paste are lysed by sonication in 40 ml of Buffer A [20 mM Tris pH 7.5; 1 μM ZnCl2; 10 mM β-mercaptoethanol] supplemented with 0.5M NaCl and Complete EDTA-free® protease inhibitors tablets (Roche). Nucleic acids and cell debris are removed by adding 0.11 volumes of 0.2 M ammonium sulfate and an equivalent volume of 10% poly-(ethyleneimine) pH 8.0, stirring the sample for 20 minutes at 4° C., followed by centrifugation at 30 000×g for 20 minutes. SEQ ID NO: 2 is recovered from the supernatant by adding 0.35 volumes of saturated ammonium sulfate solution followed by centrifugation at 10 000×g for 15 minutes. The pellet is dissolved in 10 ml of Buffer A+0.1 M NaCl and dialyzed overnight in the same buffer but at 0.05 M NaCl (Dialysis Buffer). The sample is then cleared by centrifugation and passed on a 1-ml HiTrapTMSP HP column (GE Healthcare) pre-equilibrated with Dialysis Buffer. SEQ ID NO: 2 is eluted with Buffer A+0.5 M NaCl, fractions containing the protein are pooled; concentration determination is done by Abs280 using the calculated molar extinction coefficient (E=40220 M-1 cm-1).
Reacti-Bind Neutravidin Coated black 384-well plates (Pierce Cat#15402) are washed with 80 μl/well of Buffer A (50 mM Tris pH 8.0; 350 mM NaCl; 10 μM ZnSO4; 0.0025% CHAPS (w/v); 50 μg/ml BSA; 1 mM DTT). Immobilization of a 5′-end biotin labeled (TG)25 oligonucleotide (Integrated DNA Technology Inc.) is carried out by adding 50 μl/well of a 25 nM solution of oligonucleotide in Buffer A+5 mg/ml BSA and incubating overnight. Unbound material is removed by two 80 μl/well washes with Buffer A. Assembly reactions are performed in 60 μl/well reactions comprising 100 nM of 5′-end fluorescein labeled (TG)25 oligonucleotide (Integrated DNA Technology Inc.) and 2 μM of CA-NC protein (SEQ ID NO: 2), using Buffer A. Assembly reactions are incubated for 2 hours at room temperature and non-immobilized material is removed by washing 80 μl/well with Buffer A. Test compounds, serially diluted in Buffer A+0.125% dimethyl sulfoxide (DMSO), are added to the wells (60 μl/well) and incubated at room temperature for 2 hours. […]

[2] = biological target: T2, HIV-1NL4-3 CA-NC protein (SEQ ID NO: 2) (Human immunodeficiency virus type 1 group M subtype B, UniProt P12493, G226D); experiment: Immobilized capsid assembly assay (CAA); type: biochemical; settings: concentration for 50% inhibition of capsid assembly; 2 μM CA-NC, 2 hours at room temperature; read-out: IC50 (μM) CAA
T2 construct: HIV-1NL4-3 CA-NC, Gag residues 133-432; initiator Met (start codon introduced by PCR primer) (N); made in house; host or cells: E. coli BL21(DE3), pET-11a
From the text: as §1, §2
Reacti-Bind Neutravidin Coated black 384-well plates (Pierce Cat#15402) are washed with 80 μl/well of Buffer A (50 mM Tris pH 8.0; 350 mM NaCl; 10 μM ZnSO4; 0.0025% CHAPS (w/v); 50 μg/ml bovine serum albumin (BSA); 1 mM DTT). Immobilization of a 5′-end biotin labeled (TG)25 oligonucleotide (Integrated DNA Technology Inc.) is carried out by adding 50 μl/well of a 25 nM solution of oligonucleotide in Buffer A+5 mg/ml of BSA (Sigma™) and incubating overnight. Unbound material is removed by two 80 μl/well washes with Buffer A. Assembly reactions are performed in 60 μl/well reactions comprising test compound, 100 nM of 5′-end fluorescein labeled (TG)25 oligonucleotide (Integrated DNA Technology Inc.) and 2 μM of CA-NC protein (SEQ ID NO: 2), using Buffer A+1% DMSO. Assembly reactions are incubated for 2 hours at room temperature and non-immobilized material is removed by two successive 80 μl/well washes with Buffer A. Finally, 80 μl/well of Buffer A+0.1% sodium dodecyl sulfate (SDS) is added and incubated for 15 minutes prior to quantification of captured fluorescence on a Victor2 plate reader (PerkinElmer Life Sciences) equipped with fluorescein excitation and emission filters using the standard manufacturer's settings for fluorescein fluorescence. The amount of captured fluorescence is considered to be proportional to the level of assembly. The IC50 values for each compound are generated by fitting inhibition curves from ten-point dilution series to the following equation: […]

[3] = system: HIV-1 replication in C8166 LTRluc cells; experiment: C8166 HIV-1 luciferase assay; type: cell-based; settings: Human immunodeficiency virus 1, 72 h, inhibition of HIV-1 replication, moi 0.005, 3 days
Procedure: The assay used to measure inhibition of HIV replication is as described in WO 2004/050643, pages 73-75, herein incorporated by reference, with the following modifications:
Serial dilutions of HIV-1 inhibitors are prepared in complete media from DMSO stock solutions. Eleven serial dilutions of desired concentration are prepared in a 1 mL deep well titer plate (96 wells). The 12th well contains complete media with no inhibitor and serves as the positive control. All samples contain the same concentration of DMSO 0.1% DMSO). Inhibitor is added, to triplicate wells, of a 96 well tissue culture treated clear view black microtiter plate (Corning Costar catalogue #3904). The total volume per well is 200 μL of media containing the cells and inhibitor. The last row is reserved for uninfected C8166 LTRluc cells to serve as the background blank control and the first row is media alone.
Count C8166 LTRluc cells and place in a minimal volume of complete RPMI 1640 in a tissue culture flask (ex. 30×10^6 cells in 10 mL media/25 cm^2 flask). Infect cells with HIV-1 at a moi of 0.005. Incubate cells for 1.5 hours at 37° C. on a rotating rack in a 5% CO2 incubator. Resuspend cells in complete RPMI to give a final concentration of 25,000-cells/well. Add cells to wells of 96 well microtiter plate containing inhibitors. Add 25,000 uninfected C8166—LTRluc cells/well in 200 μL complete RPMI to last row for background control. Incubate cells at 37° C. in 5% CO2 incubator for 3 days.

Work on `CCN1C(=O)N(c2ccc(O)c(-c3cccnc3)c2)C(=O)N(c2ccccc2)c2cc(C(F)(F)F)ccc21` [Compound 3014] yielded an IC50 [1] of 0.14 µM, an IC50 [2] of 0.31 µM and an EC50 [3] of 200 nM.
